Measured values reported in patent US6262106A, “Adamantanecarboximidamide derivatives and their use as NMDA antagonists” (priority 1998, dated 2001).
Structures can show the parent of a compound that is named as a salt.

What was measured:
[1] = known NMDA antagonists, administration; cited from earlier work
[2] = tested on: PCP site of the NMDA receptor (cortical NMDA receptors); experiment: NMDA receptor binding, [3H]-MK-801 displacement at PCP site, rat cortical membranes; details: for Ratio: (IC50 Cortex / IC50 Cerebellum); for IC50: rat cortex membranes, [3H]-MK-801 5 nM, 10 μM glutamate, 10 μM glycine, 120 min, room temperature
Text: (§1) The NMDA receptor contains several distinct binding domains that can regulate opening of the cationic channel. The phencyclidine (PCP) site of the NMDA receptor can be radiolabelled with [^3 H]-(+)-5-methyl-10,11-dihydro-5H-dibenzo[a,d]cyclohepten-5,10-imine hydrogen maleate, [^3 H-MK-801]. The following describes the procedure for determining the affinity of compounds for the PCP site in rat cortical or cerebellar membranes.
(§2) Frozen rat cortex or cerebellum, homogenized in 10 volumes of ice-cold 0.32-M. sucrose is centrifuged at 1,000 g for 12 min and the supernatant stored on ice whilst the pellet is resuspended, rehomogenized and recentrifuged twice more. The three final supernatants are pooled and centrifuged at 30,000 g for 40 min at 4° C. to yield P2 pellets. These are resuspended in ice-cold distilled water, and centrifuged at 30,000 g for 50 min at 4° C. Following three further washes in distilled water, the P2 pellets are stored at -20° C. for at least 18 h. On the day of the assay, membrane pellets are thawed at room temperature, resuspended in ice-cold distilled water and centrifuged at 30,000 g for 20 min. The pellets are resuspended in 50-mM tris-HCl (pH:7.4) and recentrifuged twice more before being resuspended in tris-HCl for immediate use in the assay. Binding assays are performed at equilibrium in a total volume of 200 μL, containing [^3 H]-MK-801 (5-nM final conc.), 10-μM glutamate, 10-μM glycine, 160 μL of membrane preparation and additional drugs where appropriate. Non-specific binding is determined using MK-801 (10-μM). The assay is incubated for 120 min at room temperature. The incubation is terminated by rapid filtration through Whatman GF/B filters (pre-soaked in 0.1% PEI solution). The assay tubes and filters are washed five times with 1 mL of ice-cold assay buffer. The filters are placed in poly-Q mini vials with approximately 5 mL of scintillation fluid. The vials are then shaken and left for at least 8 h before being counted on a liquid scintillation counter. To determine the free ligand concentration 3 aliquots (20 μL) of the [^3 H]-MK-801 working solution are also counted. Concentration response data for drugs is analysed using a 4 parameter equation fitted by non-linear regression. This yields the half maximally effective drug concentration (IC50) and Hill coefficient.

[3] = target: PCP site of the NMDA receptor (cerebellar NMDA receptors); experiment: NMDA receptor binding, [3H]-MK-801 displacement at PCP site, rat cerebellar membranes; details: rat cerebellum membranes; [3H]-MK-801 5 nM; 10 μM glutamate, 10 μM glycine; 120 min, room temperature
Text: as §1, §2

SMILES | side effects [1] | Ratio [2] | IC50 [2] [µM] | IC50 [3] [µM]
CCc1cccc(N(C)C(N)=Nc2cccc3ccccc23)c1 [Cerestat] | perceptual and cognitive disturbances of a kind that resemble naturally-occurring psychotic states | – | – | –
C[C@]12N[C@H](Cc3ccccc31)c1ccccc12 [Dizocilpine] | perceptual and cognitive disturbances of a kind that resemble naturally-occurring psychotic states | – | – | –
Cc1ccc(C2(C(=N)N)C3CC4CC(C3)CC2C4)cc1 (stereo not shown) [Example 4, 2-(4-Methylphenyl)-2-adamantanecarboximidamide hydrochloride] | – | 1.9 | 105 | 56
Cc1ccccc1C1(C(=N)N)C2CC3CC(C2)CC1C3.Cl (stereo not shown) [Example 5, 2-(2-Methylphenyl)-2-adamantanecarboximidamide hydrochloride] | – | 1.7 | 53 | 31
N=C(N)C1(c2ccc(F)cc2)C2CC3CC(C2)CC1C3 (stereo not shown) [Example 6, 2-(4-Fluorophenyl)-2-adamantanecarboximidamide hydrochloride] | – | 1.8 | 44 | 25
N=C(N)C1(c2ccc(Cl)cc2)C2CC3CC(C2)CC1C3 (stereo not shown) [Example 7, 2-(4-Chlorophenyl)-2-adamantanecarboximidamide hydrochloride] | – | 1.7 | 59 | 34
COc1ccc(C2(C(=N)N)C3CC4CC(C3)CC2C4)cc1 (stereo not shown) [Example 8, 2-(4-Methoxyphenyl)-2-adamantanecarboximidamide hydrochloride] | – | 2.0 | 45 | 22
CNC1(c2ccccc2Cl)CCCCC1=O (stereo not shown) [Ketamine] | perceptual and cognitive disturbances of a kind that resemble naturally-occurring psychotic states | – | – | –
c1ccc(C2(N3CCCCC3)CCCCC2)cc1 [PCP, phencyclidine] | perceptual and cognitive disturbances of a kind that resemble naturally-occurring psychotic states | – | – | –
